Data taken from patent US11420936B2, “Hypoxia inducible factor-2(alpha) inhibitors and their use in the treatment of diseases” (priority 2020, dated 2022).
Where two headings read alike, the source gives them in different places.

Assays:
HIF-2α = HIF-2α (Homo sapiens (Human), UniProt Q99814); assay: cell-based; type: cell-based
Experimental: The ability of the disclosed compounds to inhibit HIF-2α was measured by determining VEGF expression in 786-O cells. About 7500 786-O cells were seeded into each well of a 96-well, white, clear bottom plate (07-200-566, Fisher Scientific) with 200 ul growth medium. Four hours later, compounds were dispensed into wells by Tecan D300e digital dispenser with starting concentration of 10 uM and ½ log of dilution down to 1 nM as final concentration. Each concentration of treatment was performed in duplicate. About 20 hours later, medium was removed and fresh medium was added, followed by compounds treatment as described above. 24 hours later, cell culture medium was collected to determine VEGF concentration using an ELISA kit (R&D systems, cat #DVE00) following the manufacturer's instruction.
The EC50 is calculated by GraphPad Prism using the dose-response-inhibition (four parameter) equation. The plate with cells was then subjected to CellTiter-Glo luminescence cell viability assay (Promega) to determine the effect of these compounds on cell numbers after the above treatment.

HIF-2α/ARNT dimerization = HIF-2α/ARNT dimerization (Homo sapiens (Human), UniProt Q99814); assay: Co-immunoprecipitation assay for inhibition of HIF-2α and ARNT dimerization in PASMC and HPAEC; type: cell-based
HIF-2α/ARNT dimerization, sequence (Q99814 whole entry): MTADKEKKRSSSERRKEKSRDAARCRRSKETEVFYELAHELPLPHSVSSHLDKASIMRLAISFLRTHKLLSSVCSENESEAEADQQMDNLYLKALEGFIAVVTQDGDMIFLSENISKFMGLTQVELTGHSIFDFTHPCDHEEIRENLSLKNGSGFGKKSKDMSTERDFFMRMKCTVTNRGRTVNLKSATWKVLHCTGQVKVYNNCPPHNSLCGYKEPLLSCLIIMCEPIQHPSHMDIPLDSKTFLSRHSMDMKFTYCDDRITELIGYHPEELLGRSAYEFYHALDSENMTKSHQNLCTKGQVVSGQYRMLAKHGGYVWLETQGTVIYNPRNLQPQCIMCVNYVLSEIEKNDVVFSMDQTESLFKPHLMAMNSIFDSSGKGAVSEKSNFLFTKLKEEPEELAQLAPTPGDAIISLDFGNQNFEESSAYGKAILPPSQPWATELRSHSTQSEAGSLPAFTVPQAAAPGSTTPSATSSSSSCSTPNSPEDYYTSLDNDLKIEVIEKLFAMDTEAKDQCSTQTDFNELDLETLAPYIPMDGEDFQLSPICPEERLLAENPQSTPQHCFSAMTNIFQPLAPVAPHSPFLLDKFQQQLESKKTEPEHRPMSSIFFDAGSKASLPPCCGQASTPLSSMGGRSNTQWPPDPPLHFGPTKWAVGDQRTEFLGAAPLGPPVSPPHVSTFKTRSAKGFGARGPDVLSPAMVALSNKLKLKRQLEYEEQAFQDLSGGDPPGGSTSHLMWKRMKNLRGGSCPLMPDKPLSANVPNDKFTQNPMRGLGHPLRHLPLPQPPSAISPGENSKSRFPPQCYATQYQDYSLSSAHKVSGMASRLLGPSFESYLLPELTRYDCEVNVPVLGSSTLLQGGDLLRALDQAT
Experimental: FIG. 1 provides results of a co-immunoprecipitation assay for measuring inhibition of HIF-2α and ARNT dimerization in Primary Pulmonary Artery Smooth Muscle Cells (PASMC) and Human Pulmonary Artery Endothelial Cells (HPAEC).
Primary Pulmonary Artery Smooth Muscle Cells (PASMC, ATCC #PCS-100-023) were cultured in Vascular Cell Basal Medium (ATCC #PCS-100-030) supplemented with Vascular Smooth Muscle Cell Growth Kit (ATCC #PCS-100-042). Primary Pulmonary Artery Endothelial Cells (HPAEC, ATCC #PCS-100-022) were cultured in Vascular Cell Basal Medium (ATCC #PCS-100-030) supplemented with Endothelial Cell Growth Kit-BBE (ATCC #PCS-100-040). 0.5×10^6 cells were seeded into 6-well cell culture plates (Corning #3736) in 2 mL of media and cultured in a 37° C. cell culture incubator with atmospheric levels of oxygen and 5% CO2 overnight. The following day, cells were cultured in normoxia condition (atmospheric levels of oxygen and 5% CO2) or in hypoxia condition (1% O2 and 5% CO2) and treated with dimethyl sulfoxide (DMSO) or Compound 24a at 0.001, 0.01, 0.1, and 1 μM for 24 h.
After treatment, cells were washed with ice-cold PBS (containing compounds as in treatment step). […] Supernatant (cell lysate) was transferred to a new tube and protein concentration was measured by BCA protein assay. […]
Cell lysates were also analyzed by immunoblot (Western analysis). […]

[1] = inhibition of VEGF expression in 786-O cells, ELISA of culture medium, read-out: EC50

HIF-2α, sequence (Q99814 whole entry): as above

| SMILES | EC50 (HIF-2α; [1]) [nM] | also measured |
| --- | --- | --- |
| N#Cc1cc(F)cc(Oc2ccc3c4c2C(F)CC4(N)C(F)(F)C3(F)F)c1 (stereo not shown) [Compound 14, 3-((2a-amino-1,3,3,4,4-pentafluoro-2,2a,3,4-tetrahydro-1H-cyclopenta[cd]inden-7-yl)oxy)-5-fluorobenzonitrile] | 630 | – |
| C=C1C[C@@]2(O)c3c(ccc(Oc4cc(F)cc(C#N)c4)c31)C(F)(F)C2(F)F [Compound 23a, (R)-3-fluoro-5-((3,3,4,4-tetrafluoro-2a-hydroxy-1-methylene-2,2a,3,4-tetrahydro-1H-cyclopenta[cd]inden-7-yl)oxy)benzonitrile] | 7 | – |
| N#Cc1cc(F)cc(Oc2ccc3c4c2[C@@H](F)C[C@]4(O)C(F)(F)C3(F)F)c1 [Compound 5, 3-fluoro-5-(((1S,2aR)-1,3,3,4,4-pentafluoro-2a-hydroxy-2,2a,3,4-tetrahydro-1H-cyclopenta[cd]inden-7-yl)oxy)benzonitrile] | 6 | – |
| CC1(O)CC2(O)c3c(ccc(Oc4cc(F)cc(C#N)c4)c31)C(F)(F)C2(F)F (stereo not shown) [Compound 11, 3-fluoro-5-((3,3,4,4-tetrafluoro-1,2a-dihydroxy-1-methyl-2,2a,3,4-tetrahydro-1H-cyclopenta[cd]inden-7-yl)oxy)benzonitrile] | > 5000 | – |
| C=C1CC2(O)c3c(ccc(Oc4cc(F)cc(C#N)c4)c31)C(F)(F)C2(F)F (stereo not shown) [Compound 1, 3-fluoro-5-((3,3,4,4-tetrafluoro-2a-hydroxy-1-methylene-2,2a,3,4-tetrahydro-1H-cyclopenta[cd]inden-7-yl)oxy)benzonitrile] | 13 | – |
| N#Cc1cc(F)cc(Oc2ccc3c4c2CCC4(O)C(F)(F)C3(F)F)c1 (stereo not shown) [Compound 13, 3-fluoro-5-((3,3,4,4-tetrafluoro-2a-hydroxy-2,2a,3,4-tetrahydro-1H-cyclopenta[cd]inden-7-yl)oxy)benzonitrile] | 330 | – |
| CC1CC2(O)c3c(ccc(Oc4cc(F)cc(C#N)c4)c31)C(F)(F)C2(F)F (stereo not shown) [Compound 10, 3-fluoro-5-((3,3,4,4-tetrafluoro-2a-hydroxy-1-methyl-2,2a,3,4-tetrahydro-1H-cyclopenta[cd]inden-7-yl)oxy)benzonitrile] | 410 | – |
| OC12CC(F)c3c(Oc4cncc(F)c4)ccc(c31)C(F)(F)C2(F)F (stereo not shown) [Compound 8, 1,3,3,4,4-pentafluoro-7-((5-fluoropyridin-3-yl)oxy)-1,2,3,4-tetrahydro-2aH-cyclopenta[cd]inden-2a-ol] | 320 | – |
| N#Cc1cc(F)cc(Oc2ccc3c4c2[C@H](F)C[C@]4(O)C(F)(F)C3(F)F)c1 [Compound 7, 3-fluoro-5-(((1R,2aR)-1,3,3,4,4-pentafluoro-2a-hydroxy-2,2a,3,4-tetrahydro-1H-cyclopenta[cd]inden-7-yl)oxy)benzonitrile] | 2100 | – |
| N#Cc1cc(F)cc(Oc2ccc3c4c2[C@@H](F)[C@H](F)[C@]4(O)C(F)(F)C3(F)F)c1 [Compound 24b, 3-fluoro-5-(((1R,2R,2aS)-1,2,3,3,4,4-hexafluoro-2a-hydroxy-2,2a,3,4-tetrahydro-1H-cyclopenta[cd]inden-7-yl)oxy)benzonitrile] | 11 | – |
| CC1(F)CC2(O)c3c(ccc(Oc4cc(F)cc(C#N)c4)c31)C(F)(F)C2(F)F (stereo not shown) [Compound 12, 3-fluoro-5-((1,3,3,4,4-pentafluoro-2a-hydroxy-1-methyl-2,2a,3,4-tetrahydro-1H-cyclopenta[cd]inden-7-yl)oxy)benzonitrile] | 100 | – |
| N#Cc1cc(F)cc(Oc2ccc3c4c2C(F)CC4(O)C(F)(F)C3(F)F)c1 (stereo not shown) [Compound 4, 3-fluoro-5-((1,3,3,4,4-pentafluoro-2a-hydroxy-2,2a,3,4-tetrahydro-1H-cyclopenta[cd]inden-7-yl)oxy)benzonitrile] | 10 | – |
| N#Cc1cc(F)cc(Oc2ccc3c4c2[C@@H](F)[C@@H](F)[C@]4(O)C(F)(F)C3(F)F)c1 [Compound 24a, 3-fluoro-5-(((1R,2S,2aS)-1,2,3,3,4,4-hexafluoro-2a-hydroxy-2,2a,3,4-tetrahydro-1H-cyclopenta[cd]inden-7-yl)oxy)benzonitrile] | 2 | Disruption of HIF-2α/ARNT dimerization at 0.01 μM (HIF-2α/ARNT dimerization; 0.01 μM, PASMC/HPAEC under hypoxia condition (1% O2)): efficiently disrupt the HIF-2α/ARNT dimerization; Disruption of HIF-2α/ARNT dimerization (HIF-2α protein co-precipitated with ARNT) (HIF-2α/ARNT dimerization; PASMC and HPAEC, 0.001, 0.01, 0.1 and 1 μM for 24 h, FIG. 1): reduced in the lysate of cells treated with Compound 24a in a dose-dependent manner |
| N#Cc1cc(F)cc(Oc2ccc3c4c2C(F)(F)CC4(F)C(F)(F)C3(F)F)c1 (stereo not shown) [Compound 15, 3-fluoro-5-((1,1,2a,3,3,4,4-heptafluoro-2,2a,3,4-tetrahydro-1H-cyclopenta[cd]inden-7-yl)oxy)benzonitrile] | > 5000 | – |
| [2H]C1([2H])[C@@]2(O)c3c(ccc(Oc4cc(F)cc(C#N)c4)c3[C@@]1([2H])F)C(F)(F)C2(F)F [Compound 21, 3-fluoro-5-(((1S,2aR)-1,3,3,4,4-pentafluoro-2a-hydroxy-2,2a,3,4-tetrahydro-1H-cyclopenta[cd]inden-7-yl-1,2,2-d3)oxy)benzonitrile] | – | EC50 (HIF-2α): 6 nM |
| N#Cc1cc(F)cc(Oc2ccc3c4c2C2(CC2)CC4(O)C(F)(F)C3(F)F)c1 (stereo not shown) [Compound 9, 3-fluoro-5-((3,3,4,4-tetrafluoro-2a-hydroxy-2,2a,3,4-tetrahydrospiro[cyclopenta[cd]indene-1,1′-cyclopropan]-7-yl)oxy)benzonitrile] | 170 | – |
| N#Cc1cc(F)cc(Oc2ccc3c4c2CC(F)(F)C4(O)CC3F)c1 (stereo not shown) [Compound 19, 3-fluoro-5-((1,3,3-trifluoro-2a-hydroxy-2,2a,3,4-tetrahydro-1H-cyclopenta[cd]inden-5-yl)oxy)benzonitrile] | 4100 | – |
